Laboratory results reported in patent US12134759B2, “Glomerulus on a chip to recapitulate glomerular filtration barrier” (Children's Hospital Los Angeles, priority 2019, dated 2024).
“Also recorded” adds a separate entry of the source. No end group written: not given here.

Legend:
[1] = tested on: podocytes in GOAC; test: F-actin staining of podocytes in the GOAC before and after PAN damage; format: cell-based, human; conditions: after PAN damage; hAKPC-P+hGEC, hiPOD+hGEC, hpPOD+hGEC chips
Method: Immunofluorescent staining was performed on OrganoPlate™ and chamber slides of representative cell types: following fixation by 4% paraformaldehyde (Santa Cruz Biotechnology c #sc-281692) and serial washes with PBS. Chips/wells of interest were prepared for staining by blocking with 5% bovine serum albumin (Jackson ImmunoResearch Lab, c #001-000-162) in PBS for 30 min. Primary, secondary, and pre-conjugated antibodies were diluted in 2.5% BSA Jackson ImmunoResearch Lab. c #001-000-162) as indicated in Table 1. Thirty microliters of solution were added to the top and bottom inlets and outlets of the chips or 100 μl of solution was added directly into the chamber slide wells. Primary antibodies were incubated at RT for 1 h; following serial washes, secondary antibodies were incubated at RT for 30 min. After a final series of washes in PBS, DAPI was applied (1:1000 in PBS; BD Pharmingen, c #564907) and the OrganoPlate™ or the wells were stored at 4° C. until imaged by confocal microscopy (Zeiss 710 microscope) and processed using the ZEN10 software.
In all, 10 μg/ml of PAN, a nephrotoxic molecule (Cayman Chemical c #15509), was supplemented to the media for 5 days. Media without PAN was used as a control. […] After PAN injury, damage was assessed using the albumin assay performed on the chip as described above.

[2] = tested on: GOAC (human podocytes + hGEC glomerular filtration barrier); test: Albumin permselectivity assay on the GOAC after puromycin aminonucleoside (PAN) injury; format: cell-based; conditions: PAN 5 days (10 μg/ml, 10 mg/ml elsewhere in the source); albumin-FITC 40 mg/ml; hAKPC-P+hGEC, hiPOD+hGEC, hpPOD+hGEC chips
Method: (§1) An albumin and inulin permeability assay were established to evaluate the efficiency of the created GFB. The number of chips used for each experiment is described in the corresponding figure legend. Media was aspirated from the bottom inlet and outlet, to which PBS was added. Then, media from the top inlet and outlet was aspirated. Fifty microliters albumin-FITC (Millipore Sigma, c #A9771) or inulin-FITC (10 mg/ml, Sigma, c #F3272) was added to the top inlet and outlet, such that the orientation of filtration would be simulated as in native blood flow: from endothelial cells, through podocytes, and into the urinary space of Bowman's capsule. […] Absorbance was measured using the Perkin Elmer Victor 3 plate reader using Wallac 1420 workstation software (fluorescein 485/535, 0.1 s). For long-term studies, the same chips were evaluated for permselectivity at respectively 1, 2, 3, and 4 weeks (hAKPC and hpPOD; hiPOD were evaluated for weeks 1 and 2 since after this time frame these chips are not properly functioning) after hGEC seeding. […] After each reading, as described above, the albumin-FITC solution and PBS were removed from the top and bottom inlets and outlets and chips were carefully rinsed with PBS twice to remove excess albumin-FITC before returning to fresh culture medium. […] Efficiency at each time point is expressed as %±SEM. […]

[3] = tested on: hAKPC-P+hGEC GOAC; test: α-MSH drug rescue of MN serum effect, albumin permselectivity assay; format: cell-based, human; conditions: 10 ng/ml α-MSH with 0.5% MN serum (MN3), 24 h; filtrate at 60 min
Method: as §1

CN(C)c1ncnc2c1ncn2[C@@H]1O[C@H](CO)[C@@H](N)[C@H]1O [PAN, puromycin aminonucleoside]
podocyte cytoskeleton (F-actin staining) [1]: cytoskeleton rearrangement; also recorded: widespread disruption of the cytoskeleton
albumin permselectivity / albumin leakage (fluorescein absorbance in filtrate after 60 min) [2]: loss of permselectivity for albumin; also recorded: marked and statistically significant increase

α-Melanocyte-stimulating hormone (SYSMEHFRWGKPV; ends and bridges not checked; UniProt P01189 138-150, looked up) [α-MSH]
proteinuria (albumin-FITC leakage) elicited by MN serum [3]: prevented proteinuria elicited by MN serum; also recorded: prevented the proteinuric effects of MN sera
